Structures can show the parent of a compound that is named as a salt.
Target: T1, recombinant guanylate cyclase reporter cell line (Rattus norvegicus, UniProt P19686+P20595)
T1 construct: expressed in transfected cells
T1 sequence (P19686 1-690): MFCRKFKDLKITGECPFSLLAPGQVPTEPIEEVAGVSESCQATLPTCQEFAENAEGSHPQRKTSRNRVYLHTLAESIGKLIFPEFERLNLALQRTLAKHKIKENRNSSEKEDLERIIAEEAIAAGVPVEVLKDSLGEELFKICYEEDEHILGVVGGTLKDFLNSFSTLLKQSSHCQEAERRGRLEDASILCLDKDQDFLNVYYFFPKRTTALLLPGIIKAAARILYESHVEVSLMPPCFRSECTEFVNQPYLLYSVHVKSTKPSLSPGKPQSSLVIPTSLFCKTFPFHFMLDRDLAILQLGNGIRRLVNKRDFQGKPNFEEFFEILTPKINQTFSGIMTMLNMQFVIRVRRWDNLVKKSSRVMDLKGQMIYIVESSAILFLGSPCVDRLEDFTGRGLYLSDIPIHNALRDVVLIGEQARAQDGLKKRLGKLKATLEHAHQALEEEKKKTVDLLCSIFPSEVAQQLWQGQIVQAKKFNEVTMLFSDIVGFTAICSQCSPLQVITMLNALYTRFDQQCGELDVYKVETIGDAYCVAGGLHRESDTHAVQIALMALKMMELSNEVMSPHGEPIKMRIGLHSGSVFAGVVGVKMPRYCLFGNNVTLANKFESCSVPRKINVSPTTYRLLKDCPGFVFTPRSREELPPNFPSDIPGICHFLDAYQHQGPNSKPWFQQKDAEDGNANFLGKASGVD
T1 sequence (P20595 1-619): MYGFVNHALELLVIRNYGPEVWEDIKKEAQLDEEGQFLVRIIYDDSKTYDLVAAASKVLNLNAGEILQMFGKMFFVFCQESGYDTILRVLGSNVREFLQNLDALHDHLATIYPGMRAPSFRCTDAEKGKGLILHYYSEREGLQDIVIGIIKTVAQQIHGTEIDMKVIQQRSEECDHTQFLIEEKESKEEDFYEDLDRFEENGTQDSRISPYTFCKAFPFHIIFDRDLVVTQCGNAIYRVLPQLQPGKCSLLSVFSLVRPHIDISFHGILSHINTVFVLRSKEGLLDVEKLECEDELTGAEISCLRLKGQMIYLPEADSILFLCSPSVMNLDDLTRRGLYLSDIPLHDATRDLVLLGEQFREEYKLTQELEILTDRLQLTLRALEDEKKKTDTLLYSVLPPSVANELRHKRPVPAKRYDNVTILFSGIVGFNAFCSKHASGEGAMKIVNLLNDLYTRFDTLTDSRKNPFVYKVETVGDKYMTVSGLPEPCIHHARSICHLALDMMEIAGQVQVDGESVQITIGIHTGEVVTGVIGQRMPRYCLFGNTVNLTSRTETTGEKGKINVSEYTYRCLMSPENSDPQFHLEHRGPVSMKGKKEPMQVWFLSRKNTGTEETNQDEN
Experiment: Effect on a recombinant guanylate cyclase reporter cell line
Type: cell-based
Details: MEC = minimum effective concentration; in some cases mean values for individual determinations
Description: B-2. Effect on a Recombinant Guanylate Cyclase Reporter Cell Line
The cellular action of the compounds of the invention is determined using a recombinant guanylate cyclase reporter cell line, as described in F. Wunder et al., Anal. Biochem. 339, 104-112 (2005).
Representative MEC values (MEC=minimum effective concentration) for the compounds of the invention are shown in the table below (in some cases as mean values for individual determinations): […]

`Cc1cc(OCCC(C(F)(F)F)C(F)(F)F)c2nc(C)c(C(=O)Nc3c(C)nn(Cc4ccccc4F)c3C)n2c1` [Example 148] was tested. Which MEC did it give?
Its MEC is 1.0 µM.

Which MEC does the source give for `Cc1nc2c(OCc3c(F)cccc3F)cccn2c1C(=O)Nc1ccc2c(c1)OCC(=O)N2` [Example 6] here?
Its MEC is 0.1 µM.

Which MEC does the source give for `Cc1ccc2c(NC(=O)c3c(C)nc4c(OCc5c(F)cccc5F)cccn34)c(C)ccc2n1` [Example 63] here?
The MEC was 0.3 µM.

Which MEC does the source give for `Cc1n[nH]c(C)c1NC(=O)c1c(C)nc2c(OCc3c(F)cccc3F)cc(F)cn12` [Example 48, 8-[(2,6-Difluorobenzyl)oxy]-N-(3,5-dimethyl-1H-pyrazol-4-yl)-6-fluoro-2-methylimidazo[1,2-a]pyridine-3-carboxamide] here?
Its MEC is 0.3 µM.

With `Cc1nc2c(OCc3c(F)cccc3F)cccn2c1C(=O)Nc1ccnc2ccc(Cl)cc12` [Example 71] as the molecule, how does the MEC read?
The MEC was 0.1 µM.

For `Cc1cc(OCc2c(F)cccc2F)c2nc(C)c(C(=O)Nc3ccc(F)cc3CN)n2c1` [Example 113, N-[2-(Aminomethyl)-4-fluorophenyl]-8-[(2,6-difluorobenzyl)oxy]-2,6-dimethylimidazo[1,2-a]pyridine-3-carboxamide], which MEC is on record?
Its MEC is 0.3 µM.

With `Cc1nc2c(OCc3c(F)cccc3F)cccn2c1C(=O)Nc1nnc(CCOC(C)C)s1` [Example 83] as the molecule, how does the MEC read?
The MEC was 3.0 µM.

`Cc1nn(CCO)c(C)c1NC(=O)c1c(C)nc2c(OCc3c(F)cccc3F)cccn12` [Example 37, 8-[(2,6-difluorobenzyl)oxy]-N-[1-(2-hydroxyethyl)-3,5-dimethyl-1H-pyrazol-4-yl]-2-methylimidazo[1,2-a]pyridine-3-carboxamide] was tested. Which MEC did it give?
The MEC was 0.3 µM.

Which MEC does the source give for `Cc1cnc(NC(=O)c2c(C)nc3c(OCc4c(F)cccc4F)cccn23)s1` [Example 146, 8-[(2,6-difluorobenzyl)oxy]-2-methyl-N-(5-methyl-1,3-thiazol-2-yl)imidazo[1,2-a]pyridine-3-carboxamide] here?
Its MEC is 3.0 µM.

`Cc1nc2c(OCc3c(F)cccc3F)cccn2c1C(=O)Nc1cnn(CCN2CCCC2)c1` [Example 128, 8-[(2,6-difluorobenzyl)oxy]-2-methyl-N-{1-[2-(pyrrolidin-1-yl)ethyl]-1H-pyrazol-4-yl}imidazo [1,2-a]pyridine-3-carboxamide] was tested. Which MEC did it give?
The MEC was 3.0 µM.

How did the MEC turn out when `Cc1cccc(C)c1NC(=O)c1c(C)nc2c(OCc3c(F)cccc3F)cccn12` [Example 58, 8-[(2,6-difluorobenzyl)oxy]-N-(2,6-dimethylphenyl)-2-methylimidazo[1,2-a]pyridine-3-carboxamide] was run?
Its MEC is 0.3 µM.

How did the MEC turn out when `Cc1nn(CCO)c(C)c1NC(=O)c1c(C)nc2c(OCc3c(F)cccc3F)cc(Cl)cn12` [Example 42, 6-chloro-8-[(2,6-difluorobenzyl)oxy]-N-[1-(2-hydroxyethyl)-3,5-dimethyl-1H-pyrazol-4-yl]-2-methylimidazo[1,2-a]pyridine-3-carboxamide] was run?
Its MEC is 0.1 µM.

Which MEC does the source give for `Cc1nc2c(OCc3c(F)cccc3F)cccn2c1C(=O)Nc1ccccc1CN` [Example 111, N-[2-(Aminomethyl)phenyl]-8-[(2,6-difluorobenzyl)oxy]-2-methylimidazo[1,2-a]pyridine-3-carboxamide] here?
The MEC was 1.0 µM.

Which MEC does the source give for `Cc1n[nH]cc1NC(=O)c1c(C)nc2c(OCc3c(F)cccc3F)cccn12` [Example 3] here?
The MEC was 0.3 µM.

`Cc1nc2c(OCc3c(F)cccc3F)cccn2c1C(=O)Nc1cnn2ccccc12` [Example 1, 8-[(2,6-Difluorobenzyl)oxy]-2-methyl-N-(pyrazolo[1,5-a]pyridin-3-yl)imidazo[1,2-a]pyridine-3-carboxamide] was tested. Which MEC did it give?
Its MEC is 0.1 µM.

With `Cc1ccnc(NC(=O)c2c(C)nc3c(OCc4c(F)cccc4F)cccn23)n1` [Example 126, 8-[(2,6-Difluorobenzyl)oxy]-2-methyl-N-(4-methylpyrimidin-2-yl)imidazo[1,2-a]pyridine-3-carboxamide] as the molecule, how does the MEC read?
The MEC was 1.0 µM.

With `Cc1nc2c(OCc3c(F)cccc3F)cccn2c1C(=O)Nc1cnn(C)c1` [Example 119, 8-[(2,6-difluorobenzyl)oxy]-2-methyl-N-(1-methyl-1H-pyrazol-4-yl)imidazo[1,2-a]pyridine-3-carboxamide] as the molecule, how does the MEC read?
Its MEC is 1.0 µM.

How did the MEC turn out when `Cc1nc2c(OCc3c(F)cccc3F)cccn2c1C(=O)Nc1ccccc1F` [Example 10] was run?
The MEC was 0.3 µM.

For `Cc1nc2c(OCC3CCCCC3)cccn2c1C(=O)Nc1cccc(CCC(=O)O)c1` [Example 150, 3-[3-({[8-(Cyclohexylmethoxy)-2-methylimidazo[1,2-a]pyridin-3-yl]carbonyl}amino)phenyl]propanoic acid], which MEC is on record?
Its MEC is 1.0 µM.

How did the MEC turn out when `Cc1nn(CC(F)(F)F)c(C)c1NC(=O)c1c(C)nc2c(OCc3c(F)cccc3F)cc(Cl)cn12` [Example 43, 6-chloro-8-[(2,6-difluorobenzyl)oxy]-N-[3,5-dimethyl-1-(2,2,2-trifluoroethyl)-1H-pyrazol-4-yl]-2-methylimidazo[1,2-a]pyridine-3-carboxamide] was run?
The MEC was 0.03 µM.

`Cc1nn(CC(F)(F)F)c(C)c1NC(=O)c1c(C)nc2c(OCc3c(F)cccc3F)cccn12` [Example 32, 8-[(2,6-difluorobenzyl)oxy]-N-[3,5-dimethyl-1-(2,2,2-trifluoroethyl)-1H-pyrazol-4-yl]-2-methylimidazo[1,2-a]pyridine-3-carboxamide] was tested. Which MEC did it give?
Its MEC is 1.0 µM.

Which MEC does the source give for `Cc1nc2c(OCc3c(F)cccc3F)cccn2c1C(=O)Nc1ccnc2ccc(C(F)(F)F)cc12` [Example 79] here?
Its MEC is 0.1 µM.

`Cc1cc(NC(=O)c2c(C)nc3c(OCc4c(F)cccc4F)cccn23)cc(C)n1` [Example 101] was tested. Which MEC did it give?
The MEC was 1.0 µM.

With `COc1cccc(NC(=O)c2c(C)nc3c(OCc4c(F)cccc4F)cccn23)c1` [Example 13] as the molecule, how does the MEC read?
The MEC was 0.3 µM.

Which MEC does the source give for `Cc1nc2c(OCc3c(F)cccc3F)cccn2c1C(=O)Nc1ccnc2cc(Cl)ccc12` [Example 77, N-(7-Chloroquinolin-4-yl)-8-[(2,6-difluorobenzyl)oxy]-2-methylimidazo[1,2-a]pyridine-3-carboxamide] here?
The MEC was 0.1 µM.

For `O=C(Nc1cnn(CCO)c1)c1c(C2CC2)nc2c(OCc3c(F)cccc3F)cccn12` [Example 142, 2-Cyclopropyl-8-[(2,6-difluorobenzyl)oxy]-N-[1-(2-hydroxyethyl)-1H-pyrazol-4-yl]imidazo[1,2-a]pyridine-3-carboxamide], which MEC is on record?
The MEC was 10 µM.

How did the MEC turn out when `Cc1nc2c(OCc3c(F)cccc3F)cccn2c1C(=O)Nc1nn(C)c2ccc(C(F)(F)F)cc12` [Example 103, 8-[(2,6-Difluorobenzyl)oxy]-2-methyl-N-[1-methyl-5-(trifluoromethyl)-1H-indazol-3-yl]imidazo[1,2-a]pyridine-3-carboxamide] was run?
Its MEC is 1.0 µM.

For `Cc1cccc(NC(=O)c2c(C)nc3c(OCc4c(F)cccc4F)cccn23)n1` [Example 5], which MEC is on record?
Its MEC is 0.3 µM.

`Cc1n[nH]c(C)c1NC(=O)c1c(C)nc2c(OCc3c(F)cccc3F)cccn12` [Example 29, 8-[(2,6-difluorobenzyl)oxy]-N-(3,5-dimethyl-1H-pyrazol-4-yl)-2-methylimidazo[1,2-a]pyridine-3-carboxamide] was tested. Which MEC did it give?
The MEC was 0.53 µM.

For `Cc1nc2c(OCc3c(F)cccc3F)cccn2c1C(=O)Nc1ccc(C)c2ncccc12` [Example 72], which MEC is on record?
Its MEC is 0.3 µM.

With `Cc1cc(OCCC(C(F)(F)F)C(F)(F)F)c2nc(C)c(C(=O)Nc3c(C)n[nH]c3C(F)(F)F)n2c1` [Example 149, 2,6-dimethyl-N-[3-methyl-5-(trifluoromethyl)-1H-pyrazol-4-yl]-8-[4,4,4-trifluoro-3-(trifluoromethyl)butoxy]imidazo[1,2-a]pyridine-3-carboxamide] as the molecule, how does the MEC read?
Its MEC is 2.0 µM.

How did the MEC turn out when `Cc1cccc(NC(=O)c2c(C)nc3c(OCc4c(F)cccc4F)cccn23)c1C` [Example 12] was run?
The MEC was 0.3 µM.

How did the MEC turn out when `Cc1nc2c(OCc3c(F)cccc3F)cccn2c1C(=O)Nc1nccc2ccccc12` [Example 59, 8-[(2,6-difluorobenzyl)oxy]-N-(isoquinolin-1-yl)-2-methylimidazo[1,2-a]pyridin-3-carboxamide trifluoroacetate] was run?
Its MEC is 1.0 µM.
